From patent US9024033B2, “Anti-malarial agents” (MMV Medicines for Malaria Venture, priority 2010, dated 2015)
Converted amounts (≈) assume the structure as drawn.

How the values were obtained:
Format in all cases: cell-based
P. falciparum (K1) = experiment: Assay 1: anti-malarial in vitro efficacy, P. falciparum K1; settings: Plasmodium falciparum; strain K1, assay 1
Procedure: (§1) The ability of aminopyridine derivatives according to the invention to kill P. falciparum parasites and/or to inhibit its proliferation was tested as follows:
(§2) Assay 1: The protocol used was as described in the supplemental material to Fiddock et al., 2004, Nature Reviews Drug Discovery, (3), p 509. […]

P. falciparum (NF54) = experiment: Assay 1: anti-malarial in vitro efficacy, P. falciparum NF54; settings: Plasmodium falciparum; strain NF54, assay 1
Procedure: as §1, §2

P. falciparum (3D7) = experiment: Assay 2: DAPI imaging assay of parasite replication, P. falciparum 3D7; settings: Plasmodium falciparum, strain 3D7, 1.8 μM, 72 hours
Procedure: as §1
(§3) Assay 2: Compounds were incubated in the presence of 2 or 3% ring stage parasite (P. falciparum 3D7 or Dd2) and 0.3% hematocrite in a total assay volume of 50 μL, for 72 hours in a humidified atmosphere at 37° C., 5% O2 and 5% CO2, in Poly-D-lysine coated Cell Carrier Imaging plates (Perkin Elmer). After incubation plates were stained with DAPI (4′,6-diamidino-2-phenylindole, Invitrogen) in the presence of Saponin and Triton X-100 (Sigma-Aldrich) and incubated for a further 5 hours at RT in the dark before imaging on the OPERATM HTS confocal imaging system (Perkin Elmer). The digital images obtained were then analyzed using the PerkinElmer Acapella spot detection software where spots which fulfil the criteria established for a stained parasite are counted. The % inhibition of parasite replication was calculated using DMSO and 2 μM Artemisinin control data. Measured % inhibition and EC50 (ng/ml) are reported in Tables 5 & 6 below against different strains of P. falciparum K1, NF54 (assay 1) and 3D7, Dd2 (assay 2), respectively).

P. falciparum (Dd2) = experiment: Assay 2: DAPI imaging assay of parasite replication, P. falciparum Dd2; settings: Plasmodium falciparum, strain Dd2, 1.8 μM, 72 hours
Procedure: as §1, §3

## CS(=O)(=O)c1ccc(-c2cnc(N)c(-c3ccc4ncccc4c3)c2)cc1 [Compound 59, 5-[4-(methylsulfonyl)phenyl]-3-(quinolin-6-yl) pyridin-2-amine]
P. falciparum (K1)
  EC50: 0.098 mg/L (≈ 0.261 µM)
P. falciparum (NF54)
  EC50: 0.107 mg/L (≈ 0.285 µM)

## CNC(=O)c1ccc(-c2cc(-c3ccc(S(C)(=O)=O)cc3)cnc2N)cc1 [Compound 29, 4-{2-amino-5-[4-(methylsulfonyl)-phenyl]pyridin-3-yl}-N-methyl benzamide]
P. falciparum (K1)
  EC50: 0.026 mg/L (≈ 0.0682 µM)
P. falciparum (NF54)
  EC50: 0.03 mg/L (≈ 0.0786 µM)

## CS(=O)(=O)c1ccc(-c2cnc(N)c(-c3ccc(S(C)(=O)=O)nc3)c2)cc1 [Compound 78, 5-[4-(methylsulfonyl)phenyl]-3-[2-(methylsulfonyl)-pyridin-5-yl]pyridin-2-amine]
P. falciparum (K1)
  EC50: 0.11 mg/L (≈ 0.273 µM)
P. falciparum (NF54)
  EC50: 0.094 mg/L (≈ 0.233 µM)

## CS(=O)(=O)c1ccc(-c2cnc(N)c(-c3ccc(C(N)=O)cc3)c2)cc1 [Compound 28, 4-{2-amino-5-[4-(methylsulfonyl)phenyl]pyridin-3-yl} benzamide]
P. falciparum (K1)
  EC50: 0.01 mg/L (≈ 0.0272 µM)
P. falciparum (NF54)
  EC50: 0.01 mg/L (≈ 0.0272 µM)

## CS(=O)(=O)c1ccc(-c2cnc(N)c(-c3ccc(S(C)(=O)=O)cc3)c2)cc1 [Compound 17, 3,5-di-[4-(methylsulfonyl)phenyl]pyridin-2-amine]
P. falciparum (K1)
  EC50: 0.032 mg/L (≈ 0.0795 µM)
P. falciparum (NF54)
  EC50: 0.031 mg/L (≈ 0.077 µM)

## Cc1ccc(-c2cc(-c3ccc(S(C)(=O)=O)cc3)cnc2N)cc1 [Compound 65, 5-[4-(methylsulfonyl)phenyl]-3-p-tolylpyridin-2-amine]
P. falciparum (K1)
  EC50: 0.033 mg/L (≈ 0.0975 µM)
P. falciparum (NF54)
  EC50: 0.034 mg/L (≈ 0.1 µM)

## Cc1cc(-c2cnc(N)c(-c3ccc(N4CCN(C)CC4)cc3)c2)cc(C)c1O [Compound 7, 4-[6-amino-5-[4-(4-methylpiperazin-1-yl)phenyl]pyridin-3-yl]-2,6-dimethylphenol]
P. falciparum (3D7)
  inhibition at 1.8 µM: 93%
P. falciparum (Dd2)
  inhibition at 1.8 µM: 96%

## CN1CCN(c2ccc(-c3cc(-c4ccc(O)cc4)cnc3N)cc2)CC1 [Compound 9, 4-[6-amino-5-[4-(4-methylpiperazin-1-yl)phenyl]pyridin-3-yl]phenol]
P. falciparum (3D7)
  inhibition at 1.8 µM: 76%
P. falciparum (Dd2)
  inhibition at 1.8 µM: 53%

## CS(=O)(=O)c1ccc(-c2cnc(N)c(-c3ccc(CO)nc3)c2)cc1 [Compound 69, {5-[2-amino-5-(4-(methylsulfonyl)-phenyl)pyridin-3-yl]pyridin-2-yl}methanol]
P. falciparum (K1)
  EC50: 0.06 mg/L (≈ 0.169 µM)
P. falciparum (NF54)
  EC50: 0.061 mg/L (≈ 0.172 µM)

## CS(=O)(=O)c1ccc(-c2cnc(N)c(-c3cccc(OC(F)(F)F)c3)c2)cc1 [Compound 36, 5-[4-(methysulfonyl)phenyl]-3-[3-(trifluoromethoxy)phenyl] pyridin-2-amine]
P. falciparum (K1)
  EC50: 0.074 mg/L (≈ 0.181 µM)
P. falciparum (NF54)
  EC50: 0.078 mg/L (≈ 0.191 µM)

## CS(=O)(=O)c1ccc(-c2cnc(N)c(-c3ccc(OC(F)(F)F)cc3)c2)cc1 [Compound 37, 5-[4-(methylsulfonyl)phenyl]-3-[4-(trifluoromethoxy)phenyl]pyridin-2-amine]
P. falciparum (K1)
  EC50: 0.097 mg/L (≈ 0.238 µM)
P. falciparum (NF54)
  EC50: 0.099 mg/L (≈ 0.242 µM)

## CS(=O)(=O)c1ccc(-c2cnc(N)c(-c3cccc(O)c3)c2)cc1 [Compound 3, 3-[2-amino-5-(4-methylsulfonylphenyl)pyridin-3-yl]phenol]
P. falciparum (3D7)
  inhibition at 1.8 µM: 99%
P. falciparum (Dd2)
  inhibition at 1.8 µM: 94%

## CS(=O)(=O)c1ccc(-c2cnc(N)c(-c3ccnc(C(F)(F)F)c3)c2)cc1 [Compound 42, 3-[2-(trifluoromethyl)pyridin-4-yl]-5-[4-(methylsulfonyl)phenyl] pyridin-2-amine]
P. falciparum (K1)
  EC50: 0.061 mg/L (≈ 0.155 µM)
P. falciparum (NF54)
  EC50: 0.071 mg/L (≈ 0.18 µM)

## CC(=O)Nc1ccc(-c2cc(-c3ccc(S(C)(=O)=O)cc3)cnc2N)cn1 [Compound 79, N-{5-[2-amino-5-(4-(methylsulfonyl)-phenyl)pyridin-3-yl]pyridin-2-yl}acetamide]
P. falciparum (K1)
  EC50: 0.046 mg/L (≈ 0.12 µM)
P. falciparum (NF54)
  EC50: 0.047 mg/L (≈ 0.123 µM)

## CS(=O)(=O)c1ccc(-c2cnc(N)c(-c3ccc(C#N)cc3)c2)cc1 [Compound 25, 4-{2-amino-5-[4-(methylsulfonyl)-phenyl]pyridin-3-yl}benzonitrile]
P. falciparum (K1)
  EC50: 0.051 mg/L (≈ 0.146 µM)
P. falciparum (NF54)
  EC50: 0.056 mg/L (≈ 0.16 µM)

## COc1cc(-c2cc(-c3ccc(S(C)(=O)=O)cc3)cnc2N)ccc1O [Compound 4, 4-[2-amino-5-(4-methylsulfonylphenyl)pyridin-3-yl]-2-methoxyphenol]
P. falciparum (3D7)
  inhibition at 1.8 µM: 99%
P. falciparum (Dd2)
  inhibition at 1.8 µM: 96%

## CS(=O)(=O)c1ccc(-c2cnc(N)c(-c3cnc(N)nc3)c2)cc1 [Compound 55, 5-{2-amino-5-[4-(methylsulfonyl)-phenyl]pyridin-3-yl}pyrimidin-2-amine]
P. falciparum (K1)
  EC50: 0.041 mg/L (≈ 0.12 µM)
P. falciparum (NF54)
  EC50: 0.04 mg/L (≈ 0.117 µM)

## COc1ncc(-c2cc(-c3ccc(S(C)(=O)=O)cc3)cnc2N)cn1 [Compound 31, 3-(2-methoxypyrimidin-5-yl)-5-[4-(methylsulfonyl)phenyl]pyridin-2-amine]
P. falciparum (K1)
  EC50: 0.098 mg/L (≈ 0.275 µM)
P. falciparum (NF54)
  EC50: 0.093 mg/L (≈ 0.261 µM)

## CS(=O)(=O)c1ccc(-c2cnc(N)c(-c3ccc(C(F)(F)F)nc3)c2)cc1 [Compound 44, 3-[2-(trifluoromethyl)pyridin-5-yl]-5-[4-(methylsulfonyl)phenyl] pyridin-2-amine]
P. falciparum (K1)
  EC50: 0.01 mg/L (≈ 0.0254 µM)

## NC(=O)c1ccc(-c2cnc(N)c(-c3ccc(C(N)=O)cc3)c2)cc1 [Compound 80, 4-[2-amino-3-(4-benzamido)pyridin-5-yl]benzamide]
P. falciparum (K1)
  EC50: 0.028 mg/L (≈ 0.0842 µM)
P. falciparum (NF54)
  EC50: 0.025 mg/L (≈ 0.0752 µM)

## COc1ccc(-c2cc(-c3ccc(CO)cc3)cnc2N)cn1 [Compound 8, [4-[6-amino-5-(6-methoxypyridin-3-yl)pyridin-3-yl]phenyl]methanol]
P. falciparum (3D7)
  inhibition at 1.8 µM: 83%

## Cc1ccc(-c2cc(-c3ccc(S(C)(=O)=O)cc3)cnc2N)cn1 [Compound 43, 3-(2-methylpyridin-5-yl)-5-[4-(methylsulfonyl)phenyl] pyridin-2-amine]
P. falciparum (K1)
  EC50: 0.0098 mg/L (≈ 0.0289 µM)
P. falciparum (NF54)
  EC50: 0.0094 mg/L (≈ 0.0277 µM)

## COc1ccc(-c2cnc(N)c(-c3ccc(O)c(OC)c3)c2)cn1 [Compound 6, 4-[2-amino-5-(6-methoxypyridin-3-yl)pyridin-3-yl]-2-methoxyphenol]
P. falciparum (3D7)
  inhibition at 1.8 µM: 98%
P. falciparum (Dd2)
  inhibition at 1.8 µM: 98%

## COc1ccc(-c2cc(-c3ccc(S(C)(=O)=O)cc3)cnc2N)cn1 [Compound 1, 3-(6-Methoxypyridin-3-yl)-5-(4-methylsulfonylphenyl) pyridin-2-amine]
P. falciparum (K1)
  EC50: 0.014 mg/L (≈ 0.0394 µM)

## CS(=O)(=O)c1ccc(-c2cnc(N)c(-c3cccc(C(F)(F)F)c3)c2)cc1 [Compound 2, 5-(4-methylsulfonylphenyl)-3-[3-(trifluoromethyl)phenyl]pyridin-2-amine]
P. falciparum (K1)
  EC50: 0.031 mg/L (≈ 0.079 µM)
P. falciparum (NF54)
  EC50: 0.041 mg/L (≈ 0.104 µM)
P. falciparum (3D7)
  inhibition at 1.8 µM: 99%
P. falciparum (Dd2)
  inhibition at 1.8 µM: 96%

## CN(C)CC(=O)Nc1ccc(-c2cc(-c3ccc(S(C)(=O)=O)cc3)cnc2N)cc1 [Compound 75, N-{4-[2-amino-5-(4-(methylsulfonyl)phenyl)pyridin-3-yl]phenyl}-2-(dimethylamino) acetamide]
P. falciparum (K1)
  EC50: 0.11 mg/L (≈ 0.259 µM)
P. falciparum (NF54)
  EC50: 0.088 mg/L (≈ 0.207 µM)

## CS(=O)(=O)c1ccc(-c2cnc(N)c(-c3ccc(O)cc3)c2)cc1 [Compound 5, 4-[2-amino-5-(4-methylsulfonylphenyl)pyridin-3-yl]phenol]
P. falciparum (3D7)
  inhibition at 1.8 µM: 98%
P. falciparum (Dd2)
  inhibition at 1.8 µM: 98%

## CS(=O)(=O)c1ccc(-c2cnc(N)c(-c3ccc(-n4cccn4)cc3)c2)cc1 [Compound 47, 3-[4-(1H-pyrazol-1-yl)phenyl]-5-[4-(methylsulfonyl)phenyl] pyridin-2-amine]
P. falciparum (K1)
  EC50: 0.085 mg/L (≈ 0.218 µM)
P. falciparum (NF54)
  EC50: 0.089 mg/L (≈ 0.228 µM)

## NC(=O)c1ccc(-c2cc(-c3ccc(C(=O)N4CCOCC4)cc3)cnc2N)cc1 [Compound 71, {4-[2-amino-3-(4-carbamoyl phenyl)pyridin-5-yl]phenyl}-(morpholino) methanone]
P. falciparum (K1)
  EC50: 0.0068 mg/L (≈ 0.0169 µM)
P. falciparum (NF54)
  EC50: 0.0079 mg/L (≈ 0.0196 µM)

## CS(=O)(=O)c1ccc(-c2cnc(N)c(-c3ccc(C(F)(F)F)cc3)c2)cc1 [Compound 85, 3-[4-(trifluoromethyl)phenyl]-5-[4-(methylsulfonyl)phenyl]pyridin-2-amine]
P. falciparum (K1)
  EC50: 0.0086 mg/L (≈ 0.0219 µM)
P. falciparum (NF54)
  EC50: 0.0081 mg/L (≈ 0.0206 µM)

## CS(=O)(=O)c1ccc(-c2cnc(N)c(-c3cccc(C#N)c3)c2)cc1 [Compound 26, 3-{2-amino-5-[4-(methylsulfonyl)-phenyl]pyridin-3-yl}benzonitrile]
P. falciparum (K1)
  EC50: 0.059 mg/L (≈ 0.169 µM)
P. falciparum (NF54)
  EC50: 0.061 mg/L (≈ 0.175 µM)
